{
  "source": "paper PMC7531601",
  "about": "“Exploiting Lactoferricin (17–30) as a Potential Antimicrobial and Antibiofilm Candidate Against Multi-Drug-Resistant Enteroaggregative Escherichia coli” (Frontiers in Microbiology, 2020)",
  "key": {"HEp-2 cells": {"system": "HEp-2 cells", "details": "MTT", "procedure": "(§1) Initially, characterization of Lfcin (17–30) was performed by determining its minimum inhibitory concentration (MIC), minimum bactericidal concentration (MBC), in vitro stability assays (high-end temperatures, the physiological concentration of cationic salts and proteases), and in vitro safety assays (sheep erythrocyte hemolysis and secondary cell line cytotoxicity) (Supplementary Files S1–S3). The membrane permeabilization effect of Lfcin (17–30) was assessed by flow cytometry, whereas outer and inner membrane permeability of MDR-EAEC strains treated with 1 × and 2 × MIC levels of Lfcin (17–30) was carried out based on the nitrocefin activity as well as the release of cytoplasmic β-galactosidase activity, respectively (Supplementary File S4). Further, Lfcin (17–30) was evaluated for its antibacterial activity against beneficial lactobacilli (L. acidophilus MTCC 10307 and L. rhamnosus MTCC 1408) (Supplementary File S5).\n(§2) To determine the safety of Lfcin (17-30) on host cells, a haemolytic assay using sheep erythrocytes as well as cytotoxicity assay using secondary cell lines were performed with 1X, 2X and 4X MICs of Lfcin (17-30), respectively. In brief, haemolytic assay was performed, wherein the haemolytic activity of Lfcin (17-30) was tested by determining the extent of haemoglobin release from sheep erythrocytes (10%). Further, the safety aspect of Lfcin (17-30) was evaluated on secondary cell line viz., human epithelioma cell line (HEp-2), and murine macrophage cell line (RAW 264.7) by performing MTT [3-(4,5-dimethylthiazole-2-yl)-2,5-diphenyl tetrazolium bromide] assay."}, "RAW 264.7 cells": {"system": "RAW 264.7 cells", "details": "MTT", "procedure": "as §1, §2"}, "sheep erythrocytes": {"system": "sheep erythrocytes", "details": "sheep erythrocytes (10%)", "procedure": "as §1, §2"}},
  "note": "Where two headings read alike, the source gives them in different places. Ends that are not written are not given here.",
  "data": [
    {"sequence": "FKCRRWQWRMKKLG [Lfcin (17–30)]", "values": [
      {"measurement": "cytotoxicity / morphological changes", "setting": "HEp-2 cells; HEp-2, 1× and 2× MIC", "result": "remarkable morphological changes were not evident"},
      {"measurement": "cytotoxicity", "setting": "HEp-2 cells; HEp-2, 4× MIC", "result": "moderate to higher cytotoxicity"},
      {"measurement": "cytotoxicity / morphological changes", "setting": "RAW 264.7 cells; RAW 264.7, 1× and 2× MIC", "result": "remarkable morphological changes were not evident"},
      {"measurement": "cytotoxicity", "setting": "RAW 264.7 cells; RAW 264.7, 4× MIC", "result": "moderate to higher cytotoxicity"},
      {"measurement": "Haemolysis (%)", "setting": "sheep erythrocytes; MIC (1X)", "result": "non-hemolytic"},
      {"measurement": "Haemolysis (%)", "setting": "sheep erythrocytes; MIC (2X)", "result": "non-hemolytic"}
    ]}
  ]
}
